{
  "source": "patent US12268682B2",
  "about": "“Anticancer drug FL118 formulation for treatment of human cancer” (CANGET BIOTEKPHARMA, LLC, priority 2019, dated 2025)",
  "key": {"[1]": {"system": "UM9 MM tumors", "assay": "In vivo efficacy in humanized xenograft RAG2-/-γc-/- model", "parameters": "species or system mice", "protocol": "In vivo efficacy of FL118: The in vivo efficacy of FL118 was studied in a xenograft RAG2^−/−γc^−/− marine model in which human MM cells are grown in a humanized BM like microenvironment generated by subcutaneous inoculation of MSC coated Hybrid scaffolds (4 scaffolds per mice) as described elsewhere (Groen R W, et al. Blood 2012,120:e9-e16). 24 hours before tumor inoculation (UM9; 5×10^5 cells/scaffold) mice were pre-conditioned with 18 mg/kg Busilvex. One week after inoculation, when there was visible tumor growth in all scaffolds by BLI, mice were randomly divided in four groups which were treated as follows: (1) vehicle control (n=3); (2) 0.05 mg/kg FL118 (n=4); (3) 0.1 mg/kg FL118 (n=4); (4) 0.2 mg/kg FL118 (n=4). FL118 or vehicle was administrated i.v. daily for five times. Tumor growth was monitored by weekly BLI measurements as previously described (Groen R W, et al. Blood 2012,120:e9-e16). All animal experiments were conducted for animal experimentation and were in compliance with the Dutch Animal Experimentation Act."}, "[2]": {"system": "BMMSCs", "assay": "BMMSC viability (Cell TiterGlo)", "protocol": "A pool (n=12) of newly diagnosed-MM patient derived BMMSCs were treated with serial concentrations of FL118. Cell viability was determined by Cell TiterGlo after indicated period of time. Error bars represent the SD of three independent experiments.\nBone Marrow derived Mesenchymal stromal cells (BMMSCs): Diagnostic BM aspirations from MM patients were used to isolate BMMNCs and culture adherent BMMSCs as described elsewhere (Prins H J, et al. Tissue Eng Part A. 2009, 15:3741-3751). To minimalize inter-individual variation, all experiments were performed with cells from a pool of BMMSCs derived from twelve MM patients at passage 3."}, "[3]": {"conditions": "cited from earlier work"}, "[4]": {"system": "control genes (p21cip1/waf1, dihydrofolate reductase, human thrombin receptor, thymidine kinase)", "conditions": "cited from earlier work"}, "[5]": {"system": "cancer stem cells (CSCs)", "conditions": "cited from earlier work"}, "[6]": {"system": "T-cells and NK-cells", "assay": "Toxicity of FL118 on immune effector cells", "assay_type": "cell-based, human", "conditions": "up to 100 nM", "protocol": "Toxicity of FL118 on immune effector cells: Cryopreserved BMMNCs derived from MM patients or plasma cell leukemia (PCL) patients, were treated with various concentrations of FL118. After 24 hours, viable CD45^+ CD3^+ T-cells and CD45^+ CD56^+ CD14^− CD3^− NK-cells were enumerated by multiparameter flow cytometry. Additionally, healthy-donor peripheral blood mononuclear cells (PBMCs) were seeded in 96-well flat-bottom plates at 1×10^5 cells/well, stimulated with PMA (25 ng/mL) and ionomycin (500 ng/mL) (both Santa Cruz Biotechnology) for 24 hours, and subsequently treated with FL118 for 48 hours before determining activated CD45^+ CD3^+ CD56^− CD25^+ T-cells by flow cytometry. The percentage cell survival was then calculated using the following formula: % immune cell survival=absolute number of viable immune cells in treated wells/mean absolute number of viable immune cells in untreated wells×100%."}, "[7]": {"system": "Survivin", "assay": "Intracellular staining of Survivin in patient MM cells", "assay_type": "cell-based, human", "conditions": "FL118-susceptible RR patients, 16 h", "protocol": "Intracellular staining Survivin and Mcl-1: Mcl-1 and survivin expression levels in MM cells of BMMNC patient samples were determined by intracellular staining followed by flow cytometry. Untreated or FL118 treated (16 h) patient samples were washed twice with cold PBS. Cells were blocked with human immunoglobulin and stained for CD38 (BD biosciences), CD138 (Bio-Connect) and live/dead cell marker. In addition, LUC- and Green fluorescence protein (GFP)-transduced UM9 MM-cells were incubated alone or a monolayer of 1×10^6 BMMSCs in a 100 mm dish for 24 or 48 hours. Non-adherent cells were harvested by taking culture medium from plates and washing plates with PBS by gentle pipetting. Adherent cells were harvested using Stem-Pro Accutase. Both adherent and non-adherent cells were blocked with human immunoglobulin and stained for CD105 (Synobiotechnology) and live/dead marker. The stained patient cells and UM9 cells were then fixated in 4% formaldehyde for 15 minutes at room temperature. After fixation, the cells were placed in ice cold 90% methanol for 30 minutes on ice for permeabilization and subsequently stored at −20° C. […] Expression levels were analyzed in viable CD38^+ CD138^+ patient MM cells and GFP^+ CD105^− UM9-cells using flow cytometry."}, "[8]": {"system": "MM cell lines", "assay": "BLI-based cytotoxicity assay using LUC-transduced MM cell lines", "parameters": "species or system human", "protocol": "Cell lines and culture: Luciferase (LUC)-transduced MM cell lines RPMI 8226, JJN3, UM9, MM1.s, U266, L363, and OPM-2 were cultured in RPMI 1640 (Life Technologies), supplemented with 10% heat-inactivated HyClone FetalClone I serum (GE Healthcare Life Sciences) and (penicillin, 10.000 U/mL; streptomycin, […]; InVitrogen,). HS-5 was cultured in DMEM (Life Technologies), supplemented with heat-inactivated FBS (Sigma) and antibiotics."}, "[9]": {"system": "human tumors", "conditions": "cited from earlier work"}, "[10]": {"target": "topoisomerase I (Top1) (Homo sapiens, UniProt P11387)", "sequence (P11387 whole entry, species assumed)": "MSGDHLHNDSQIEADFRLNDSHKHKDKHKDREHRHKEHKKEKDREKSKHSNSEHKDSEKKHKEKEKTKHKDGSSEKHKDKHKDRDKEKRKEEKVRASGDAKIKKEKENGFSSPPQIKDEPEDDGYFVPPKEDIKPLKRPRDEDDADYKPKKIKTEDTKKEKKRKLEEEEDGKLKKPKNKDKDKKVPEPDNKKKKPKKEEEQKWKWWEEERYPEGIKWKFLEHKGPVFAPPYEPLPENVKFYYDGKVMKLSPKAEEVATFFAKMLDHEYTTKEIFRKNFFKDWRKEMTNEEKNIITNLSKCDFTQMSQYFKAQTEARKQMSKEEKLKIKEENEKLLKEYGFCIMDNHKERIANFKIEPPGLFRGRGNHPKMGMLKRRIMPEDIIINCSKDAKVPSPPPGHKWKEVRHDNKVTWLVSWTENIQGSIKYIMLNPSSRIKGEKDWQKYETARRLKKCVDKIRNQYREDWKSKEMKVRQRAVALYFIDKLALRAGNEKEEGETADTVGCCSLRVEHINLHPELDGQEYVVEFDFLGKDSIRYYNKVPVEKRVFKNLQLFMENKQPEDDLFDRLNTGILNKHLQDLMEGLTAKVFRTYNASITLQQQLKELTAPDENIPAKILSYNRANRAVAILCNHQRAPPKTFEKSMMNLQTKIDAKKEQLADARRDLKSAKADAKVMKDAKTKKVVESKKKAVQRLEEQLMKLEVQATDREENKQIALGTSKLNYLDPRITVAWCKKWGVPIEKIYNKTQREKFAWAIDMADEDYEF", "conditions": "cited from earlier work"}, "[11]": {"conditions": "0.2 mg/kg i.v. daily for five times"}},
  "data": [
    {"compound": "CC[C@@]1(O)C(=O)OCc2c1cc1n(c2=O)Cc2cc3cc4c(cc3nc2-1)OCO4", "note": "[FL118]", "values": [
      {"measurement": "delay of tumor outgrowth", "setting": "[1]; [11]", "result": "up to 5 weeks"},
      {"measurement": "effect on initial tumor volume", "setting": "[1]; [11]", "result": "reduce the initial tumor volume"},
      {"measurement": "in vivo anti-MM activity", "setting": "[1]; 0.05, 0.1, 0.2 mg/kg i.v. daily for five times", "result": "dose-dependent"},
      {"measurement": "toxicity against BMMSCs", "setting": "[2]; serial concentrations of FL118", "result": "minimal toxicity"},
      {"measurement": "toxic effects on BMMSCs", "setting": "[2]; up to a dose of 100 nM", "result": "no toxic effects"},
      {"measurement": "oral availability", "setting": "[3]; in vivo, po", "result": "orally available"},
      {"measurement": "pharmacokinetics (PK) profile", "setting": "[3]; intravenous administration, accumulated in tumor, rapidly cleared in blood stream", "result": "favorable"},
      {"measurement": "inhibitory effects on control genes", "setting": "[4]", "result": "no inhibitory effects"},
      {"measurement": "expression of CSC markers (ABCG2, ALDH1A1, Oct4)", "setting": "[5]", "result": "downregulates"},
      {"measurement": "invasive ability of CSCs", "setting": "[5]", "result": "effectively decreases"},
      {"measurement": "toxic effects on resting T-cells or NK-cells", "setting": "[6]; BMMNC samples from MM or PCL patients, 24 hours", "result": "no toxic effects"},
      {"measurement": "toxic effects on PMA-activated CD25+ T-cells", "setting": "[6]; healthy individuals, 48 hours", "result": "no toxic effects"},
      {"measurement": "levels of Survivin expression", "setting": "[7]", "result": "significantly reduced"},
      {"measurement": "lysis of MM cell lines in the presence of BMMSCs", "setting": "[8]; 5 of 6 MM cell lines", "result": "not reduced, or even increased"},
      {"measurement": "stroma-cell induced drug resistance against bortezomib and doxorubicin", "setting": "[8]; MM1.s and UM9 co-cultured with BMMSCs or HS-5, 48 hours", "result": "effectively abrogated"},
      {"measurement": "combination activity with melphalan or bortezomib", "setting": "[8]; MM cell lines, 48 hours", "result": "at least additive activity"},
      {"measurement": "lysis of MM cell line in the presence of BMMSCs", "setting": "[8]; cell line UM9", "result": "minimal reduction"},
      {"measurement": "activity on irinotecan and topotecan-resistant human tumors", "setting": "[9]; animal models", "result": "effectively overcomes"},
      {"measurement": "tumor elimination", "setting": "[9]; two-month experimental period", "result": "eliminate small and large volume human tumors without relapse in a high percentage of mice"},
      {"measurement": "antitumor activity compared with FDA-approved anticancer drugs", "setting": "[9]; versus irinotecan, topotecan, doxorubicin, 5-FU, gemcitabine, docetaxel, oxaliplatin, cytoxan, cisplatin", "result": "significantly better antitumor activity"},
      {"measurement": "concentration level for effects on Top1 activity", "setting": "[10]", "result": "μM levels"}
    ]}
  ]
}
